Patent US20150252370A1, “USE OF ATX INHIBITORS FOR TREATMENT OR PREVENTION OF INFLUENZA VIRUS A INFECTIONS” (Academia Sinica, priority 2014, published 2015)
“Also recorded” adds a separate entry of the source.

Experiments:
[1] = test system: Influenza A virus (IAV) (A/WSN/33, H1N1); assay type: cell-based
[2] = molecular target: T1, human AXL (Homo sapiens, UniProt P30530); assay type: cell-based
T1 construct: Human AXL (NM_021913.4) were PCR amplified using the primers human AXL forward; expressed in transfected cells
T1 sequence (P30530 26-894): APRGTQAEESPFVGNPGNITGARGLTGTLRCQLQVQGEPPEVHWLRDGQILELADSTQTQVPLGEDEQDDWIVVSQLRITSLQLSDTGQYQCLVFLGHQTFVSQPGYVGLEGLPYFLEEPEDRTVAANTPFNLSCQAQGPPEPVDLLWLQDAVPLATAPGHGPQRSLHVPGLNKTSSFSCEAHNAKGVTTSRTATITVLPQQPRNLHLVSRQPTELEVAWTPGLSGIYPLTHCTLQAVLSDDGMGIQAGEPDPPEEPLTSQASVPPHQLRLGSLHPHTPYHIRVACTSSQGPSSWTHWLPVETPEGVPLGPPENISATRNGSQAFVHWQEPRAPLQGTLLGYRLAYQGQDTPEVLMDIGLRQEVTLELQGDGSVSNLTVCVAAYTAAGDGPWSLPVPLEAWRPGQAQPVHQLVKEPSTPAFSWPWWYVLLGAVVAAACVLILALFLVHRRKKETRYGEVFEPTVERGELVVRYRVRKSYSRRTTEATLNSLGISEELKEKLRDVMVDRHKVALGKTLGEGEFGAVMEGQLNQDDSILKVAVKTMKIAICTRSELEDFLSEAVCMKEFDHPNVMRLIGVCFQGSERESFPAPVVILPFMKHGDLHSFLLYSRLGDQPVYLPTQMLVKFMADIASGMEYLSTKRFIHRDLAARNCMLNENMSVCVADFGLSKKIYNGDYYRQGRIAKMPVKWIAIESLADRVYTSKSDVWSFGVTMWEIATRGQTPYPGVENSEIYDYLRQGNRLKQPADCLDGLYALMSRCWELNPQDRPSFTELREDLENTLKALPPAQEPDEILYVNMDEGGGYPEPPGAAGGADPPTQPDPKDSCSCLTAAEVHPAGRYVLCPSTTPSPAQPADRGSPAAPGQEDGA

[3] = test system: metastatic breast cancer; conditions: mouse models of metastatic breast cancer; cited from earlier work

## Nc1nc(Nc2ccc3c(c2)CCC(N2CCCC2)CC3)nn1-c1cc2c(nn1)-c1ccccc1CCC2 (stereo not shown) [R428, 1-(6,7-dihydro-5H-benzo[6,7]cyclohepta[1,2-c]pyridazin-3-yl)-N3-(7-(pyrrolidin-1-yl)-6,7,8,9-tetrahydro-5H-benzo[7]annulen-2-yl)-1H-1,2,4-triazole-3,5-diamine]
[1]
  IAV replication (NP and NS1 protein expression): blocked virus infection; also recorded: significantly inhibited influenza A virus infection; also recorded: inhibited IAV replication
  time of addition at which R428 inhibits IAV replication: before or during the first hour, but not later
[2]
  AXL autophosphorylation stimulated by Gas6: block autophosphorylation
[3]
  tumor spread and survival: block tumor spread and prolong survival
